Measured values as given in patent publication US20260020566A1, “FUNGICIDAL COMPOSITIONS” (SYNGENTA CROP PROTECTION AG, priority 2022, published 2026).
Values joined by “and” are separate entries in the source; they are usually repeats but may differ in a detail not shown here. Equal values may be shown once.

Tests used:
[1] = test system: Septoria tritici; test: Septoria tritici (Leaf blotch) liquid culture growth inhibition, microtiter plate; type: cell-based; conditions: single compound, 72 hrs, 24 C
Experimental: (§1) Septoria tritici (Leaf Blotch): Conidia of the fungus from cryogenic storage were directly mixed into nutrient broth (PDB potato dextrose broth). A DMSO solution of the test compounds was placed into a microtiter plate (96-well format) and the nutrient broth containing the fungal spores was added to it. The test plates were incubated at 24 C and the inhibition of growth was determined photometrically after 72 hrs.

[2] = test system: Phakopsora pachyrhizi; test: Phakopsora pachyrhizi (Soybean rust) soybean leaf disk preventive fungicidal activity; type: in vivo; conditions: single compound, approx. 12 dpi; for inhibition at 3 g/ha / inhibition at 1 g/ha: Phakopsora pachyrhizi, foliar, read-out: Observed Activity (%)
Experimental: Phakopsora pachyrhizi (Soybean Rust): Soybean leaf disks are placed on agar in multiwell plates (24-well format) and sprayed with test solutions. After drying, the leaf disks are inoculated with a spore suspension of the fungus. After appropriate incubation the activity of a compound is assessed approx. 12 dpi (days after inoculation) as preventive fungicidal activity.

[3] = test system: Mycosphaerella arachidis syn. Cercospora arachidicola; test: Mycosphaerella arachidis syn. Cercospora arachidicola (Brown leaf spot of peanut) liquid culture growth inhibition; type: cell-based; conditions: single compound, approximately 5-6 days, 24 C, read-out: Observed Activity (%)
Experimental: as §1, with “Mycosphaerella arachidis syn. Cercospora arachidicola (Brown Leaf Spot of Peanut):” for “Septoria tritici (Leaf Blotch):”, “approximately 5-6 days at 620nm” for “72 hrs.”

[4] = test system: Botrytis cinerea; test: Botrytis cinerea (Gray mould) liquid culture growth inhibition, microtiter plate; type: cell-based; conditions: single compound, 72 hrs, 24 C, read-out: Observed Activity (%)
Experimental: as §1, with “Botrytis cinerea (Gray Mould):” for “Septoria tritici (Leaf Blotch):”

[5] = Zymoseptoria tritici, read-out: Observed Activity (%)

1-(2,6-difluoro-4-isopropyl-phenyl)pyrazole; methyl N-[(2,5-dimethylphenyl)methyl]carbamate [reference compound]
Observed Activity (%) ([1]; 0.0008 ppm): 20%
Observed Activity (%) ([1]; 0.00246 ppm): 70%
Observed Activity (%) ([2]; 1 g a.i./ha): 3%
Observed Activity (%) ([2]; 3 g a.i./ha): 65%

Fc1cccc(F)c1C1(Oc2ncc(-c3nnc(C(F)F)o3)cn2)CC1 [Compound A-1.2, 2-(difluoromethyl)-5-[2-[1-(2,6-difluorophenyl)cyclopropoxy]pyrimidin-5-yl]-1,3,4-oxadiazole]
inhibition at 10 ppm [1, 5]: 0%
inhibition at 20 ppm [1, 5]: 0%
Observed Activity (%) ([2]; 1 g a.i./ha): 0% and 9%
Observed Activity (%) ([2]; 3 g a.i./ha): 4% and 0%
Observed Activity (%) ([2]; 6 g a.i./ha): 5%

Fc1cccc(F)c1C1(Nc2ncc(-c3nnc(C(F)F)o3)cn2)CC1 [Compound A-1.3, 5-[5-(difluoromethyl)-1,3,4-oxadiazol-2-yl]-N-[1-(2,6-difluorophenyl)cyclopropyl]pyrimidin-2-amine]
inhibition at 10 ppm [1, 5]: 20%
inhibition at 20 ppm [1, 5]: 20%
inhibition at 3 g/ha ([2]; 3 g a.i./ha): 47%
Observed Activity (%) ([2]; 1 g a.i./ha): 5% and 1%
inhibition at 10 ppm ([3]; 10 ppm): 20%
inhibition at 20 ppm ([3]; 20 ppm): 20%
inhibition at 10 ppm [4]: 20%
inhibition at 20 ppm [4]: 20%

Fc1ccccc1C1(Nc2ncc(-c3nnc(C(F)F)o3)cn2)CC1 [Compound A-1.4, 5-[5-(difluoromethyl)-1,3,4-oxadiazol-2-yl]-N-[1-(2-fluorophenyl)cyclopropyl]pyrimidin-2-amine]
inhibition at 10 ppm [1, 5]: 20%
inhibition at 20 ppm [1, 5]: 20%
inhibition at 1 g/ha ([2]; 1 g a.i./ha): 12%
inhibition at 3 g/ha ([2]; 3 g a.i./ha): 43%
Observed Activity (%) ([2]; 1 g a.i./ha): 16%
Observed Activity (%) ([2]; 3 g a.i./ha): 45%
inhibition at 10 ppm [4]: 20%
inhibition at 20 ppm [4]: 20%

CCOC(=O)c1cnn(Cc2ccc(O/C=C(\OCC)C(F)(F)F)cc2)c1 [ethyl 1-[[4-[(Z)-2-ethoxy-3,3,3-trifluoro-prop-1-enoxy]phenyl]methyl]pyrazole-4-carboxylate, reference compound]
inhibition at 20 ppm [1, 5]: 20%
inhibition at 1 g/ha ([2]; 1 g a.i./ha): 38%
inhibition at 3 g/ha ([2]; 3 g a.i./ha): 56%
inhibition at 6.66 ppm [4]: 20%
inhibition at 20 ppm [4]: 20%

CCOC(=O)c1cnn(Cc2ccc(OCC3(C(F)(F)F)OCCO3)cc2)c1 [ethyl 1-[[4-[[2-(trifluoromethyl)-1,3-dioxolan-2-yl]methoxy]phenyl]methyl]pyrazole-4-carboxylate]
inhibition at 1 g/ha ([2]; 1 g a.i./ha): 35%
inhibition at 6.66 ppm [4]: 0%
inhibition at 20 ppm [4]: 0%

COC(=O)NCc1cc(-c2ccn(-c3c(F)cc(C4CC4)cc3F)n2)ccc1C [methyl N-[[5-[1-(4-cyclopropyl-2,6-difluoro-phenyl)pyrazol-3-yl]-2-methyl-phenyl]methyl]carbamate, reference compound]
inhibition at 0.0008 ppm ([1]; Zymoseptoria tritici, 0.0008 ppm, read-out: Observed Activity (%)): 20%
inhibition at 1 g/ha ([2]; 1 g a.i./ha): 12%
inhibition at 3 g/ha ([2]; 3 g a.i./ha): 54%
inhibition at 0.00246 ppm ([3]; 0.00246 ppm): 20%
inhibition at 0.0074 ppm ([4]; 0.0074 ppm): 0%
inhibition at 0.022 ppm ([4]; 0.022 ppm): 50%
